Measured values reported in patent US5608084A, “Lactones with antioxidising and hypolipidaemic activity useful in the therapy of the atherosclerosis” (priority 1994, dated 1997).
Like-named read-outs stand apart in the source and are kept apart here.

Tests used:
[1] = test system: men and women; conditions: considerable amounts of Vitamin E; cited from earlier work
[2] = test system: LDL; conditions: in vitro, LDL incubated with antioxidizer; cited from earlier work
[3] = test system: HepG2; test: Incorporation of 14C-acetate in the lipidic classes in HepG2 cells (hypolipidaemic activity); type: cell-based, human; conditions: for Incorporation of 14C-acetate: Cholesterol / Incorporation of 14C-acetate: Esters of Cholesterol / Incorporation of 14C-acetate: Fatty acids / Incorporation of 14C-acetate: Phospholipids / Incorporation of 14C-acetate: Triglycerides: per culture plate; for inhibition at 1 µM / inhibition at 10 µM: Homo sapiens, HepG2
Experimental: The hypolipidaemic activity of some lactones of general formula I has been evaluated in vitro by testing their influence on the synthesis of the cell lipids like cholesterol, fatty acids, triglycerides, phospholipids and esters of the cholesterol, described by Barnhard J. W. in Amer. J. Cardiol., 62, 52B-56B, (1988).
The synthesis of the lipids has been studied by incubating cells coming from a human hepatocarcinoma (HepG2-American Type Culture Collection) in presence of ^14 C-acetate (Amersham) and by measuring the incorporation of the radioactive precursor in the main lipidic classes by means of chromatographic separation on silica gel (Merck F254), according to the method described by Skipski V. P. et al. in Biochem. Biophys. Acta, 106, 386-396, (1965) and by means of scintillographic dosage with β-counter Beckman scintillator, according to the method reported by Gherardi E. and Calandra S. in Lipids, 15, 108-112, (1980).
The data reported in tables 4 and 5 refer to the incorporation of ^14 C-acetate in the various lipidic classes, expressed as radioactivity in count per minute (cpm) for culture plate, for some lactones, in comparison with the probucol and the gemfibrozil, used as positive controls and with the solvent ethanol, used as negative control.
The percents in brackets express the lowering of the ^14 C-acetate in the various lipidic classes referred to the control, i.e. to the physiological solution. […] The confluence cells have been exposed to the products tested for 24 hours; at the end of the incubation the monolayer has been solubilized and the optical density of the lysate at λ260 nm has been measured. The value of the absorbance is direct function of the amount of the macromolecules present and therefore indirectly of the number of the cells.

Q: What does the source list for Vitamin E?
A: risk of vascular pathologies [1]: lowering of the risk of vascular pathologies; atherogenic potentialities of the LDL [2]: remarkably lowered

Q: What does the source list for `Cc1ccc(C)c(OCCCC(C)(C)C(=O)O)c1` [Gemfibrozil, reference compound]?
A: influence on the synthesis of the triglycerides [3]: remarkable activity; Incorporation of 14C-acetate: Cholesterol ([3]; 1 μM): 20820 cpm; Incorporation of 14C-acetate: Esters of Cholesterol ([3]; 1 μM): 968 cpm; Incorporation of 14C-acetate: Fatty acids ([3]; 1 μM): 299 cpm; Incorporation of 14C-acetate: Phospholipids ([3]; 1 μM): 132598 cpm; Incorporation of 14C-acetate: Triglycerides ([3]; 1 μM): 84593 cpm; Incorporation of 14C-acetate: Cholesterol ([3]; 10 μM): 25306 cpm; Incorporation of 14C-acetate: Esters of Cholesterol ([3]; 10 μM): 1156 cpm; Incorporation of 14C-acetate: Fatty acids ([3]; 10 μM): 376 cpm; Incorporation of 14C-acetate: Phospholipids ([3]; 10 μM): 164252 cpm; Incorporation of 14C-acetate: Triglycerides ([3]; 10 μM): 96533 cpm; inhibition at 1 µM ([3]; 1 μM, read-out: Incorporation of 14C-acetate: Cholesterol, percent referred to physiological solution): 34%; inhibition at 1 µM ([3]; 1 μM, read-out: Incorporation of 14C-acetate: Esters of Cholesterol, percent referred to physiological solution): 76%; inhibition at 1 µM ([3]; 1 μM, read-out: Incorporation of 14C-acetate: Fatty acids, percent referred to physiological solution): 55%; inhibition at 1 µM ([3]; 1 μM, read-out: Incorporation of 14C-acetate: Phospholipids, percent referred to physiological solution): 47%; inhibition at 1 µM ([3]; 1 μM, read-out: Incorporation of 14C-acetate: Triglycerides, percent referred to physiological solution): 22%; inhibition at 10 µM ([3]; 10 μM, read-out: Incorporation of 14C-acetate: Cholesterol, percent referred to physiological solution): 20%; inhibition at 10 µM ([3]; 10 μM, read-out: Incorporation of 14C-acetate: Esters of Cholesterol, percent referred to physiological solution): 71%; inhibition at 10 µM ([3]; 10 μM, read-out: Incorporation of 14C-acetate: Fatty acids, percent referred to physiological solution): 44%; inhibition at 10 µM ([3]; 10 μM, read-out: Incorporation of 14C-acetate: Phospholipids, percent referred to physiological solution): 34%; inhibition at 10 µM ([3]; 10 μM, read-out: Incorporation of 14C-acetate: Triglycerides, percent referred to physiological solution): 11%; activity as regards the synthesis of the esters of the cholesterol ([3]; summary of Table 4): 70-75%
